Test system: platelet aggregation induced by ADP in human platelet-rich plasma (PRP)
Experiment: Human platelet aggregation inhibitory activity (ADP-induced, platelet-rich plasma)
Format: cell-based
Conditions: 8 min, ADP final concentration 20 μM, maximum aggregation rate, measured for 8 minutes
Method: A blood collecting syringe containing 1/10 volume of a 3.8% sodium citrate solution was used to collect blood from radial vein of a healthy person. The collected blood was centrifuged at 180×g at room temperature for 10 minutes to separate the supernatant (platelet-rich plasma; PRP). After PRP was separately collected, the remaining blood was centrifuged at 1,600×g for 10 minutes to separately collect platelet-poor plasma (PPP) of the upper layer. PRP was left at rest at 16° C. for 30 minutes, and subsequently used for measurement.
200 μL of the separately collected PRP was dispensed into a cuvette for the aggregation test, and 1 μL of dimethylsulfoxide (control) or a test compound solution diluted with dimethylsulfoxide was added, followed by incubation at 37° C. for 2 minutes. Subsequently, 2 μL of 2 mM ADP was added (final concentration 20 μM) to induce platelet aggregation.
Platelet aggregation was measured for 8 minutes using an aggregometer (MCM HEMA TRACER 313M; MC MEDICAL, INC.). With the light transmittance rate of PPP being set as an aggregation value of 100%, the maximum aggregation rate was determined for each concentration of the test compounds to calculate IC50 values.

Row | Compound | IC50 [µM]
1 | C[C@@H]1Oc2ncc(Cl)cc2N(C2CCN(C(=O)c3ccc(-c4ccccc4OCC(C)(C)C(=O)O)cc3)CC2)C1=O [Example 20, 3-{[4′-({4-[(3S)-7-Chloro-3-methyl-2-oxo-2,3-dihydro-1H-pyrido[2,3-b][1,4]oxazin-1-yl]piperidin-1-yl}carbonyl)biphenyl-2-yl]oxy}-2,2-dimethylpropanoic acid] | 2.8
2 | CC(C)(COc1ccccc1-c1ccc(C(=O)N2CCC(N3C(=O)C4(CC4)Oc4ncc(Cl)cc43)CC2)c(Cl)c1)C(=O)O [Example 18, 3-[(3′-Chloro-4′-{[4-(7′-chloro-2′-oxospiro[cyclopropane-1,3′-pyrido[2,3-b][1,4]oxazin]-1′(2′H)-yl)piperidin-1-yl]carbonyl}biphenyl-2-yl)oxy]-2,2-dimethylpropanoic acid] | 10
3 | CC(C)(COc1ccccc1-c1ccc(C(=O)N2CCC(N3C(=O)C(C)(C)Oc4ncc(Cl)cc43)CC2)c(O)c1)C(=O)O [Example 21, 3-[(4′-{[4-(7-Chloro-3,3-dimethyl-2-oxo-2,3-dihydro-1H-pyrido[2,3-b][1,4]oxazin-1-yl)piperidin-1-yl]carbonyl}-3′-hydroxybiphenyl-2-yl)oxy]-2,2-dimethylpropanoic acid] | 8.7
4 | CC1(C)Cc2ncc(Cl)cc2N(C2CCN(C(=O)c3ccc(-c4cc(F)ccc4OCCC(=O)O)cc3F)CC2)C1=O [Example 37, 3-[(4′-{[4-(7-Chloro-3,3-dimethyl-2-oxo-3,4-dihydro-1,5-naphthyridin-1(2H)-yl)piperidin-1-yl]carbonyl}-3′,5-difluorobiphenyl-2-yl)oxy]propanoic acid] | 6.6
5 | Cc1cnc2c(c1)N(C1CCN(C(=O)c3ccc(-c4ccccc4OCC(C)(C)C(=O)O)cc3F)CC1)C(=O)C(C)O2 (centres unmarked) [Example 4, 3-[(4′-{[4-(3,7-Dimethyl-2-oxo-2,3-dihydro-1H-pyrido[2,3-b][1,4]oxazin-1-yl)piperidin-1-yl]carbonyl}-3′-fluorobiphenyl-2-yl)oxy]-2,2-dimethylpropanoic acid] | 4
6 | CC(C)(COc1ccccc1-c1ccc(C(=O)N2CCC(N3C(=O)C(C)(C)Oc4ncc(C(F)(F)F)cc43)CC2)c(F)c1)C(=O)O [Example 3, 3-{[4′-({4-[3,3-Dimethyl-2-oxo-7-(trifluoromethyl)-2,3-dihydro-1H-pyrido[2,3-b][1,4]oxazin-1-yl]piperidin-1-yl}carbonyl)-3′-fluorobiphenyl-2-yl]oxy}-2,2-dimethylpropanoic acid] | 3.8
7 | C[C@H](CC(=O)O)Oc1ccccc1-c1ccc(C(=O)N2CCC(N3C(=O)CCc4ncc(Cl)cc43)CC2)c(F)c1 [Example 8, (3R)-3-[(4′-{[4-(7-Chloro-2-oxo-3,4-dihydro-1,5-naphthyridin-1(2H)-yl)piperidin-1-yl]carbonyl}-3′-fluorobiphenyl-2-yl)oxy]butanoic acid] | 14
8 | C[C@H](C(=O)O)[C@@H](C)Oc1ccccc1-c1ccc(C(=O)N2CCC(N3C(=O)C(C)(C)Oc4ncc(Cl)cc43)CC2)c(F)c1 [Example 33, (2S,3R)-3-[(4′-{[4-(7-Chloro-3,3-dimethyl-2-oxo-2,3-dihydro-1H-pyrido[2,3-b][1,4]oxazin-1-yl)piperidin-1-yl]carbonyl}-3′-fluorobiphenyl-2-yl)oxy]-2-methylbutanoic acid] | 16
9 | C[C@@H](COc1ccccc1-c1cnc(C(=O)N2CCC(N3C(=O)C(C)(C)Oc4ncc(Cl)cc43)CC2)c(F)c1)C(=O)O [Example 47, (2S)-3-[2-(6-{[4-(7-Chloro-3,3-dimethyl-2-oxo-2,3-dihydro-1H-pyrido[2,3-b][1,4]oxazin-1-yl)piperidin-1-yl]carbonyl}-5-fluoropyridin-3-yl)phenoxy]-2-methylpropanoic acid] | 2
10 | C[C@@H](COc1ccccc1-c1ccc(C(=O)N2CCC(N3C(=O)CCc4ncc(Cl)cc43)CC2)c(F)c1)C(=O)O [Example 12, (2S)-3-[(4′-{[4-(7-Chloro-2-oxo-3,4-dihydro-1,5-naphthyridin-1(2H)-yl)piperidin-1-yl]carbonyl}-3′-fluorobiphenyl-2-yl)oxy]-2-methylpropanoic acid] | 16
11 | C[C@H](CC(=O)O)Oc1ccc(F)cc1-c1cnc(C(=O)N2CCC(N3C(=O)[C@H](C)Oc4ncc(Cl)cc43)CC2)c(F)c1 [Example 43, (3R)-3-{2-[6-({4-[(3S)-7-Chloro-3-methyl-2-oxo-2,3-dihydro-1H-pyrido[2,3-b][1,4]oxazin-1-yl]piperidin-1-yl}carbonyl)-5-fluoropyridin-3-yl]-4-fluorophenoxy}butanoic acid] | 2.6
12 | C[C@@H](COc1ccc(F)cc1-c1cnc(C(=O)N2CCC(N3C(=O)C(C)(C)Oc4ncc(Cl)cc43)CC2)c(F)c1)C(=O)O [Example 49, (2S)-3-[2-(6-{[4-(7-Chloro-3,3-dimethyl-2-oxo-2,3-dihydro-1H-pyrido[2,3-b][1,4]oxazin-1-yl)piperidin-1-yl]carbonyl}-5-fluoropyridin-3-yl)-4-fluorophenoxy]-2-methylpropanoic acid] | 1.7
13 | Cc1cc(-c2ccccc2O[C@H](C)CC(=O)O)c(C)cc1C(=O)N1CCC(N2C(=O)C(C)(C)Oc3ncc(Cl)cc32)CC1 [Example 54, (3R)-3-[(4′-{[4-(7-Chloro-3,3-dimethyl-2-oxo-2,3-dihydro-1H-pyrido[2,3-b][1,4]oxazin-1-yl)piperidin-1-yl]carbonyl}-2′,5′-dimethylbiphenyl-2-yl)oxy]butanoic acid] | 11.4
14 | C[C@H](CC(=O)O)Oc1ccccc1-c1cnc(C(=O)N2CCC(N3C(=O)[C@H](C)Oc4ncc(Cl)cc43)CC2)c(F)c1 [Example 40, (3R)-3-{2-[6-({4-[(3S)-7-Chloro-3-methyl-2-oxo-2,3-dihydro-1H-pyrido[2,3-b][1,4]oxazin-1-yl]piperidin-1-yl}carbonyl)-5-fluoropyridin-3-yl]phenoxy}butanoic acid] | 1.1
15 | C[C@H](CC(=O)O)Oc1ccccc1-c1ccc(C(=O)N2CCC(N3C(=O)COc4ncc(Cl)cc43)CC2)c(F)c1 [Example 7, (3R)-3-[(4′-{[4-(7-Chloro-2-oxo-2,3-dihydro-1H-pyrido[2,3-b][1,4]oxazin-1-yl)piperidin-1-yl]carbonyl}-3′-fluorobiphenyl-2-yl)oxy]butanoic acid] | 7.9
16 | C[C@H](CC(=O)O)Oc1ccccc1-c1cnc(C(=O)N2CCC(N3C(=O)C(C)(C)Oc4ncc(Cl)cc43)CC2)c(F)c1 [Example 39, (3R)-3-[2-(6-{[4-(7-Chloro-3,3-dimethyl-2-oxo-2,3-dihydro-1H-pyrido[2,3-b][1,4]oxazin-1-yl)piperidin-1-yl]carbonyl}-5-fluoropyridin-3-yl)phenoxy]butanoic acid] | 1
17 | CC(C)(COc1ccccc1-c1ccc(C(=O)N2CCC(N3C(=O)C(C)(C)Oc4ncc(Cl)cc43)CC2)c([N+](=O)[O-])c1)C(=O)O [Example 22, 3-[(4′-{[4-(7-Chloro-3,3-dimethyl-2-oxo-2,3-dihydro-1H-pyrido[2,3-b][1,4]oxazin-1-yl)piperidin-1-yl]carbonyl}-3′-nitrobiphenyl-2-yl)oxy]-2,2-dimethylpropanoic acid] | 5.7
18 | C[C@H](CC(=O)O)Oc1ccc(F)cc1-c1ccc(C(=O)N2CCC(N3C(=O)CCc4ncc(Cl)cc43)CC2)c(F)c1 [Example 32, (3R)-3-[(4′-{[4-(7-Chloro-2-oxo-3,4-dihydro-1,5-naphthyridin-1(2H)-yl)piperidin-1-yl]carbonyl}-3′,5-difluorobiphenyl-2-yl)oxy]butanoic acid] | 17
19 | CC1(C)Oc2ncc(Cl)cc2N(C2CCN(C(=O)c3ccc(-c4ccccc4OCC4(C(=O)O)CC4)cc3F)CC2)C1=O [Example 23, 1-{[(4′-{[4-(7-Chloro-3,3-dimethyl-2-oxo-2,3-dihydro-1H-pyrido[2,3-b][1,4]oxazin-1-yl)piperidin-1-yl]carbonyl}-3′-fluorobiphenyl-2-yl)oxy]methyl}cyclopropanecarboxylic acid] | 5.2
20 | Cc1cnc2c(c1)N(C1CCN(C(=O)c3ccc(-c4ccccc4O[C@H](C)CC(=O)O)cc3F)CC1)C(=O)C(C)(C)O2 [Example 30, (3R)-3-[(4′-{[4-(3,3,7-Trimethyl-2-oxo-2,3-dihydro-1H-pyrido[2,3-b][1,4]oxazin-1-yl)piperidin-1-yl]carbonyl}-3′-fluorobiphenyl-2-yl)oxy]butanoic acid] | 2
21 | C[C@@H](COc1ccc(F)cc1-c1cnc(C(=O)N2CCC(N3C(=O)C(C)(C)Cc4ncc(Cl)cc43)CC2)c(F)c1)C(=O)O [Example 48, (2S)-3-[2-(6-{[4-(7-Chloro-3,3-dimethyl-2-oxo-3,4-dihydro-1,5-naphthyridin-1(2H)-yl)piperidin-1-yl]carbonyl}-5-fluoropyridin-3-yl)-4-fluorophenoxy]-2-methylpropanoic acid] | 3.7
22 | Cc1cc(-c2ccccc2OCC(C)(C)C(=O)O)ccc1C(=O)N1CCC(N2C(=O)C3(CC3)Oc3ncc(Cl)cc32)CC1 [Example 15, 3-[(4′-{[4-(7′-Chloro-2′-oxospiro[cyclopropane-1,3′-pyrido[2,3-b][1,4]oxazin]-1′(2′H)-yl)piperidin-1-yl]carbonyl}-3′-methylbiphenyl-2-yl)oxy]-2,2-dimethylpropanoic acid] | 5.8
23 | C[C@@H]1Oc2ncc(F)cc2N(C2CCN(C(=O)c3ccc(-c4ccccc4OCC(C)(C)C(=O)O)cc3F)CC2)C1=O [Example 1, 3-{[3′-Fluoro-4′-({4-[(3S)-7-fluoro-3-methyl-2-oxo-2,3-dihydro-1H-pyrido[2,3-b][1,4]oxazin-1-yl]piperidin-1-yl}carbonyl)biphenyl-2-yl]oxy}-2,2-dimethylpropanoic acid] | 15

Source: patent US8729095B2, “3-(biaryloxy)propionic acid derivatives for prevention and/or treatment of thromboembolic diseases” (Daiichi Sankyo Company, Limited, priority 2009, dated 2014)
